From ChEMBL document CHEMBL1201862, “PubChem BioAssay data set” (2004)
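Where inhibition never reached the appropriate level, the endpoint shown equals the highest concentration tested. Otherwise, values were interpolated linearly from a five-concentration, 48-hour dose response in 96-well plates. At the GI50, growth is halved.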 Active and inactive are the calls of the source. Cut-off read from the data, not from the text of the source: active = GI50 up to about 1.1 µM and inactive = higher.

Key:
Experiment in all cases: DTP human tumour cell line panel, 48 h
786-0 = system: 786-0
SW-620 = system: SW-620
MCF7 = system: MCF7
HL-60 = system: HL-60
Malme-3M = system: Malme-3M
NCI-H522 = system: NCI-H522
HCT-15 = system: HCT-15
MDA-N = system: MDA-N
SK-MEL-28 = system: SK-MEL-28
A498 = system: A498
M14 = system: M14
HT-29 = system: HT-29
A549 = system: A549
HCT-116 = system: HCT-116
HOP-62 = system: HOP-62
TK-10 = system: TK-10
OVCAR-3 = system: OVCAR-3
SK-OV-3 = system: SK-OV-3
HOP-92 = system: HOP-92
SR = system: SR
LOX IMVI = system: LOX IMVI
OVCAR-4 = system: OVCAR-4
UO-31 = system: UO-31
BT-549 = system: BT-549
PC-3 = system: PC-3
UACC-62 = system: UACC-62
COLO 205 = system: COLO 205
U-251 = system: U-251
SF-295 = system: SF-295
SN12C = system: SN12C
DU-145 = system: DU-145
T47D = system: T47D
MOLT-4 = system: MOLT-4
KM12 = system: KM12
UACC-257 = system: UACC-257
NCI-H226 = system: NCI-H226
NCI-H460 = system: NCI-H460
HCC 2998 = system: HCC 2998
CCRF-CEM = system: CCRF-CEM
OVCAR-5 = system: OVCAR-5
NCI-H23 = system: NCI-H23
SF-539 = system: SF-539
IGROV-1 = system: IGROV-1
ACHN = system: ACHN
OVCAR-8 = system: OVCAR-8
MDA-MB-231 = system: MDA-MB-231
SNB-75 = system: SNB-75
MDA-MB-435 = system: MDA-MB-435
SNB-19 = system: SNB-19
EKVX = system: EKVX
NCI/ADR-RES = system: NCI/ADR-RES
SF-268 = system: SF-268
CAKI-1 = system: CAKI-1
RXF 393 = system: RXF 393
K562 = system: K562
RPMI-8226 = system: RPMI-8226
Hs-578T = system: Hs-578T
SK-MEL-2 = system: SK-MEL-2
SK-MEL-5 = system: SK-MEL-5

CC(C)(Cc1ccccc1)Cc1cc(O)ccc1O
GI50 (786-0): 12.7 µM (inactive) | GI50 (SW-620): 22.6 µM (inactive) | GI50 (MCF7): 23.4 µM (inactive) | GI50 (HL-60): 2.22 µM (inactive) | GI50 (Malme-3M): 16.8 µM (inactive) | GI50 (NCI-H522): 4.93 µM (inactive) | GI50 (HCT-15): 17.5 µM | GI50 (MDA-N): 16.4 µM (inactive) | GI50 (SK-MEL-28): 21.8 µM (inactive) | GI50 (A498): 22 µM (inactive) | GI50 (M14): 17.6 µM (inactive) | GI50 (HT-29): 20.6 µM (inactive) | GI50 (A549): 23.7 µM (inactive) | GI50 (HCT-116): 15.8 µM (inactive) | GI50 (HOP-62): 30.1 µM (inactive) | GI50 (TK-10): 36.2 µM (inactive) | GI50 (OVCAR-3): 11.8 µM (inactive) | GI50 (SK-OV-3): 24.7 µM (inactive) | GI50 (HOP-92): 14.4 µM (inactive) | GI50 (SR): 4.63 µM (inactive) | GI50 (LOX IMVI): 13.3 µM (inactive) | GI50 (OVCAR-4): 16.4 µM (inactive) | GI50 (UO-31): 13.4 µM (inactive) | GI50 (BT-549): 16.3 µM (inactive) | GI50 (PC-3): 22.2 µM (inactive) | GI50 (UACC-62): 23.7 µM (inactive) | GI50 (COLO 205): 19.2 µM (inactive) | GI50 (U-251): 15.2 µM (inactive) | GI50 (SF-295): 18 µM (inactive) | GI50 (SN12C): 16.7 µM (inactive) | GI50 (DU-145): 23.1 µM (inactive) | GI50 (T47D): 5.9 µM (inactive) | GI50 (MOLT-4): 14.8 µM (inactive) | GI50 (KM12): 15 µM (inactive) | GI50 (UACC-257): 13.9 µM (inactive) | GI50 (NCI-H226): 33.8 µM (inactive) | GI50 (NCI-H460): 16.6 µM (inactive) | GI50 (HCC 2998): 20 µM (inactive) | GI50 (CCRF-CEM): 4.49 µM (inactive) | GI50 (OVCAR-5): 30.8 µM (inactive) | GI50 (NCI-H23): 14.6 µM (inactive) | GI50 (SF-539): 13 µM (inactive) | GI50 (IGROV-1): 26.9 µM (inactive) | GI50 (ACHN): 20.8 µM (inactive) | GI50 (OVCAR-8): 17.2 µM (inactive) | GI50 (MDA-MB-231): 20 µM (inactive) | GI50 (SNB-75): 23 µM (inactive) | GI50 (MDA-MB-435): 17.2 µM (inactive) | GI50 (SNB-19): 17.7 µM (inactive) | GI50 (EKVX): 24.9 µM (inactive) | GI50 (NCI/ADR-RES): 16.4 µM (inactive) | GI50 (SF-268): 13.9 µM (inactive) | GI50 (CAKI-1): 20.7 µM (inactive) | GI50 (RXF 393): 13.6 µM (inactive) | GI50 (K562): 12.4 µM (inactive)

Cc1cc(O)c(C(C)C)cc1SC#N
GI50 (SW-620): 17.3 µM (inactive) | GI50 (MCF7): 14.9 µM (inactive) | GI50 (HL-60): 35.1 µM (inactive) | GI50 (RPMI-8226): 2.16 µM (inactive) | GI50 (Malme-3M): 17.4 µM (inactive) | GI50 (Hs-578T): 20.5 µM (inactive) | GI50 (NCI-H522): 5.46 µM (inactive) | GI50 (HCT-15): 17.3 µM | GI50 (SK-MEL-28): 17.4 µM (inactive) | GI50 (A498): 17.1 µM (inactive) | GI50 (HOP-62): 21 µM (inactive) | GI50 (TK-10): 16.9 µM (inactive) | GI50 (OVCAR-3): 15.5 µM (inactive) | GI50 (SK-OV-3): 21 µM (inactive) | GI50 (HOP-92): 10.7 µM (inactive) | GI50 (LOX IMVI): 11.9 µM (inactive) | GI50 (OVCAR-4): 13.5 µM (inactive) | GI50 (SK-MEL-2): 18.2 µM (inactive) | GI50 (BT-549): 19.6 µM (inactive) | GI50 (PC-3): 17.1 µM (inactive) | GI50 (UACC-62): 14.6 µM (inactive) | GI50 (COLO 205): 19.4 µM (inactive) | GI50 (U-251): 16.9 µM (inactive) | GI50 (SF-295): 17.3 µM (inactive) | GI50 (DU-145): 15.5 µM (inactive) | GI50 (T47D): 17.8 µM (inactive) | GI50 (MOLT-4): 3.15 µM (inactive) | GI50 (KM12): 17.6 µM (inactive) | GI50 (UACC-257): 16.6 µM (inactive) | GI50 (NCI-H460): 16.4 µM (inactive) | GI50 (HCC 2998): 17.2 µM (inactive) | GI50 (CCRF-CEM): 3.51 µM (inactive) | GI50 (SK-MEL-5): 19.6 µM (inactive) | GI50 (NCI-H23): 17.2 µM (inactive) | GI50 (SF-539): 15.6 µM (inactive) | GI50 (IGROV-1): 16.9 µM (inactive) | GI50 (ACHN): 16.2 µM (inactive) | GI50 (OVCAR-8): 17.7 µM (inactive) | GI50 (MDA-MB-231): 18.5 µM (inactive) | GI50 (SNB-75): 10.4 µM (inactive) | GI50 (MDA-MB-435): 13.7 µM (inactive) | GI50 (NCI/ADR-RES): 19.2 µM (inactive) | GI50 (SF-268): 19.3 µM (inactive) | GI50 (CAKI-1): 15 µM (inactive) | GI50 (RXF 393): 15.5 µM (inactive) | GI50 (K562): 6.3 µM (inactive)
